Results published in patent publication US6723742B2, “Substituted 3,5-diphenyl-1,2,4-triazoles and their use as pharmaceutical metal chelators” (Novartis AG., priority 1996, dated 2004).

Tested on: Male Sprague-Dawley rats
Assay: Test I: iron excretion induced in bile duct-cannulated rats (bile and urine iron, bathophenanthroline method)
Format: in vivo
Details: bile duct-cannulated fasted rat; dose 100 mg/kg; bile and urine collected for 24 h
Description: Test I: Iron Excretion Induced by Compounds of Formula I or II [Method as Described in Bergeron et al., J. Med. Chem. 34:2072-2078 (1991)]
Male Sprague-Dawley rats averaging 400 g are housed in Nalgene plastic metabolic cages and are given free access to water. The animals are anesthetized with sodium pentobarbital (50 mg/kg), given ip. The bile duct is cannulated with 22 gauge PE 50 tubing which is inserted ca. 2 cm into the duct and tied firmly in place. A skin-tunneling needle is inserted from the shoulder area around the abdominal incision. The cannula is threaded through the needle until it emerges from the shoulder opening. The cannula is then passed from the animal to the swivel inside a metal torque-transmitting tether, which is attached to a rodent jacket. The cannula is directed from the animal to a Gilson microfraction collector by a fluid swivel mounted above the metabolic cage. This system allows the animal to move freely in the cage while continuous bile samples are being collected. Bile samples are collected in plastic disposable tubes at 3 h intervals for 24 h. Urine samples are collected in plastic disposable tubes for 24 h.
Compounds of formula I or II are prepared in 60 % water, 40 % Cremophor RH-40 (v/v).
All animals are fasted for 48 h before the administration of the compound of formula I or II and the fast is maintained throughout the course of the experiment.
The iron indicator solution, solution A, is prepared by diluting a stock aqueous solution of 0.134 mM mercaptoacetic acid and 1.9 mM bathophenanthrolinedisulfonic acid disodium salt with 5 parts water and 5 parts saturated aqueous sodium acetate. Solution B is prepared as above but without the bathophenanthroline.
An equal volume of a 10 % trichloroacetic acid solution in 3 M HCl (solution C) is added to a urine sample (2.5 ml), and the sample heated in a 65° C. bath for 4 h. After filtration through nylon filters, two 1 ml aliquots are removed. Solution A (5 ml) is added to the sample, and solution B (5 ml) is added to the blank. Bile samples are prepared as the urine samples; however, the volumes are reduced. Standard iron curves are generated with each assay. All samples are transferred to polystyrene cuvettes and the absorbance measured at 535 nm.
Compounds of formula I or II are effective in this assay when administered at a dose in the range of from 10 to 200 mg/kg, e.g. 100 to 150 mg/kg. The induced total iron excretion is in the range of about 10 to 1500 μg Fe/kg body weight, e.g. 90 to 1000 μg Fe/kg body weight.

Compound	induced total iron excretion [μg Fe/kg body weight]
O=C(Cn1nc(-c2ccccc2O)nc1-c1ccccc1O)NC(CO)CO [Example 31, 2-[3,5-Bis(2-hydroxyphenyl)-[1,2,4]triazol-1-yl]-N-(2-hydroxy-1-hydroxymethyl-ethyl)acetamide]	175
O=C(Cn1nc(-c2ccccc2O)nc1-c1ccccc1O)NCC(O)CO (stereo not drawn) [Example 26, 2-[3,5-Bis(2-hydroxyphenyl)-[1,2,4]triazol-1-yl]-N-(2,3-dihydroxypropyl)-acetamide]	171
CCOC(=O)Cn1nc(-c2ccccc2O)nc1-c1ccccc1O [Example 2, Ethyl [3,5bis(2-hydroxyphenyl)-[1,2,4]triazol-1-yl]acetate]	91
CN(C)C(=O)Cn1nc(-c2ccccc2O)nc1-c1ccccc1O [Example 33, 2-[3,5-Bis(2-hydroxyphenyl)-[1,2,4]triazol-1-yl]-N,N-dimethylacetamide]	282
O=C(O)Cn1nc(-c2ccccc2O)nc1-c1ccccc1O [Example 22, [3,5-Bis(2-hydroxyphenyl)-[1,2,4]triazol-1-yl]acetic acid]	147
O=C(Cn1nc(-c2ccccc2O)nc1-c1ccccc1O)NCCN1CCOCC1 [Example 27, 2-[3,5-Bis(2-hydroxyphenyl)-[1,2,4]triazol-1-yl]-N-(2-morpholin-4-yl-ethyl)-acetamide]	451
O=C(O)c1ccc(-n2nc(-c3ccccc3O)nc2-c2ccccc2O)cc1 [Example 5, 4-[3,5-Bis(2-hydroxyphenyl)-[1,2,4]triazol-1-yl]benzoic acid]	659
O=C(Cn1nc(-c2ccccc2O)nc1-c1ccccc1O)N(CCO)CCO [Example 37, 2-[3,5-Bis(2-hydroxyphenyl)-[1,2,4]triazol-1-yl]-N,N-bis(2-hydroxyethyl)-acetamide]	301
O=C(Cn1nc(-c2ccccc2O)nc1-c1ccccc1O)N1CCOCC1 [Example 34, 2-[3,5-Bis(2-hydroxyphenyl)-[1,2,4]triazol-1-yl]-l-morpholin-4-ylethanone]	204
O=C(Cn1nc(-c2ccccc2O)nc1-c1ccccc1O)NCCN(CCO)CCO [Example 30, N-{2-[Bis(2-hydroxyethyl)amino]ethyl}-2-[3,5-bis(2-hydroxyphenyl)-[1,2,4]triazol-1-yl]acetamide]	447
O=C(Cn1nc(-c2ccccc2O)nc1-c1ccccc1O)NCCOCCO [Example 29, 2-[3,5-Bis(2-hydroxyphenyl)-[1,2,4]triazol-1-yl]-N-[2-(2-hydroxyethoxy)ethyl]-acetamide]	359
COCCNC(=O)Cn1nc(-c2ccccc2O)nc1-c1ccccc1O [Example 25, 2-[3,5-Bis(2-hydroxyphenyl)-[1,2,4]triazol-1-yl]-N-(2-methoxyethyl)acetamide]	337
O=C(Cn1nc(-c2ccccc2O)nc1-c1ccccc1O)NCCO [Example 24, 2-[3,5bis(2-hydroxyphenyl)-(1,2,4]triazol-1-yl]-N-(2-hydroxyethyl)acetamide]	413
CN(CCO)C(=O)Cn1nc(-c2ccccc2O)nc1-c1ccccc1O [Example 28, 2-[3,5-Bis(2-hydroxyphenyl)-[1,2,4]triazol-1-yl]-N-(2-hydroxyethyl)-N-methyl-acetamide]	413
OCCn1nc(-c2ccccc2O)nc1-c1ccccc1O [Example 1, 3,5-Bis(2-hydroxyphenyl)-1-(2-hydroxyethyl)-1H-[1,2,4]triazole]	368

Same assay, conditions: bile duct-cannulated fasted rat; dose 118 mg/kg; bile and urine collected for 24 h

Compound	induced total iron excretion [μg Fe/kg body weight]
CN1CCN(C(=O)Cn2nc(-c3ccccc3O)nc2-c2ccccc2O)CC1 [Example 35, 2-[3,5-Bis(2-hydroxyphenyl)-[1,2,4]triazol-1-yl]-1-(4-methylpiperazin-1-yl)-ethanone]	293

Same assay, conditions: bile duct-cannulated fasted rat; dose 119 mg/kg; bile and urine collected for 24 h

Compound	induced total iron excretion [μg Fe/kg body weight]
CN(C)CCN(C)C(=O)Cn1nc(-c2ccccc2O)nc1-c1ccccc1O [Example 38, 2-[3,5-Bis(2-hydroxyphenyl)-[1,2,4]triazol-1-yl]-N-(2-dimethylaminoethyl)-N-methylacetamide]	970

Same assay, conditions: bile duct-cannulated fasted rat; dose 120 mg/kg; bile and urine collected for 24 h

Compound	induced total iron excretion [μg Fe/kg body weight]
Cc1ccc(O)c(-c2nc(-c3cc(C)ccc3O)n(-c3ccc(C(=O)O)cc3)n2)c1 [Example 21, 4-[3,5-Bis(2-hydroxy-5-methylphenyl)-[1,2,4]triazol-1-yl]benzoic acid]	317

Same assay, conditions: bile duct-cannulated fasted rat; dose 133 mg/kg; bile and urine collected for 24 h

Compound	induced total iron excretion [μg Fe/kg body weight]
O=C(c1ccc(-n2nc(-c3ccccc3O)nc2-c2ccccc2O)cc1)N1CCOCC1 [Example 6, {4-[3,5-Bis(2-hydroxyphenyl)-[1,2,4]triazol-1-yl]-phenyl}morpholin-4-yl-methanone]	968
O=C(O)c1ccc(-n2nc(-c3cc(Cl)ccc3O)nc2-c2cc(Cl)ccc2O)cc1 [Example 17, 4-[3,5-Bis(5-chloro-2-hydroxyphenyl)-[1,2,4]triazol-1-yl]benzoic acid]	203

Tested on: iron-overloaded marmosets (Callithrix jacchus)
Assay: Test II: iron excretion induced in iron-overloaded marmosets (urine and feces iron)
Format: in vivo
Details: iron-overloaded marmoset, p.o., dose 110.5 mg/kg; 48 h after administration, pretreatment subtracted; one line per animal
Description: Test II: Iron Excretion Induced by Compounds of Formula I or II [Method as Described in Bergeron et al., Blood 81:2166-2173 (1993)]
Adult (1 to 11 years old) marmosets (Callithrix jacchus) of both sexes, weighing 300 to 450 g are kept in pairs at 24-27° C. and a relative humidity of at least 60% in a 12-hour light-dark cycle. The animals are maintained on a pellet diet (No. 962 Nafag, Gossau, Switzerland) supplemented with fruit-vegetable mash, enriched with a vitamin-minerals concentrate (No. 9628 Nafag) and milk. Water is available ad libitum.
Iron-overloading procedure: The animals are iron-overloaded by 3 i.p. injections of iron (III) hydroxide polyisomaltose (Anaemex, Ciba-Geigy, Basel, Switzerland) at 14-day intervals (200 mg/kg twice and 100 mg/kg at the third injection). Prior to the first exposure to an iron chelator, the marmosets are rested at least 8 weeks.
Chelators administration: The test compounds are dispersed in 40 % aqueous Cremophor RH 40 (BASF, Ludwigshafen, Germany) for administration. The applied volume is 5 ml/kg body weight.
Iron excretion studies: The monkeys receive a low-iron diet 7 days before and throughout the experiments (4 days). The diet is prepared by mixing 628.9 g of a liquid diet for primates (Nafag No. 9694), 83 g of the corresponding lipid mixture (Nafag No. 9696), 131.3 g dietary fiber (Sanacell, Nafag) and 1.0 L of distilled water. […]

Compound	induced iron in feces [µg/kg]
COCCNC(=O)Cn1nc(-c2ccccc2O)nc1-c1ccccc1O [Example 25, 2-[3,5-Bis(2-hydroxyphenyl)-[1,2,4]triazol-1-yl]-N-(2-methoxyethyl)acetamide]	163.2
